Earlier results on two compounds are cited in patent US11123091B2, “Device and methods for treating paranasal sinus conditions” (Intersect ENT, Inc., priority 2005, dated 2021).

The series deals with cultured human airway epithelial cells. The note with it: for drug concentration at which dose response curves begin: beginning as low as; for EC50: read-out: EC50 levels of transcriptional response.

For the compound `CCC(=O)O[C@]1(C(=O)SCF)[C@H](C)C[C@H]2[C@@H]3C[C@H](F)C4=CC(=O)C=C[C@]4(C)[C@@]3(F)[C@@H](O)C[C@@]21C` [fluticasone propionate], the “drug concentration at which dose response curves begin” value is 10^−12 M and the EC50 is 0.1 nM.

As for `C[C@@H]1C[C@H]2[C@@H]3CCC4=CC(=O)C=C[C@]4(C)[C@@]3(Cl)[C@@H](O)C[C@]2(C)[C@@]1(OC(=O)c1ccco1)C(=O)CCl` [mometasone furoate], the “drug concentration at which dose response curves begin” value is given as 10^−12 M and the EC50 is 0.1 nM.

What is called EC50 is the concentration at which the effect is half-maximal.
